Where a name gives a salt, the structure may show the parent alone.
Legend:
[1] = tested on: HCT116 cells; test: Inhibition of cancer cell proliferation (MTT, GIC50); assay type: cell-based; conditions: Homo sapiens, HCT-116, 48 h incubation
Method: HCT116 cells derived from human colorectal cancer were used, and a cancer cell proliferation inhibition effect of a biguanide derivative was confirmed by measuring a concentration value (cell growth inhibition concentration, GIC50) at which cell growth was inhibited 50% using a 3-(4,5-dimethylthiazol-2-yl)-2,5-diphenyltetrazolium bromide (MTT) reagent.
First, the HCT116 cells were put on a 96-well plate and incubated for 24 hours to each have cell count of approximately 5000 in a DMEM medium containing 10% fetal bovine serum. Subsequently, to obtain the GIC50 value of each compound, 100 μM (or 200 μM), 25 μM, 6.25 μM, 1.56 μM or 0.39 μM of the compound was treated to each culture medium and then incubated for 48 hours. To confirm living cells after treatment with the compound, MTT was added to each culture medium and further incubated for 3 hours. Generated formazane crystal was dissolved using dimethyl sulfoxide (DMSO), and absorbance of the solution was measured at 560 nm. After the 48-hour incubation, a ratio of […] synthesized in the examples was indicated as cell viability (%) according to each administered concentration. A cell viability curve was plotted using the cell viability (%) and the calculated concentration value (GIC50) of the compound, at which 50% of the growth was inhibited, to confirm an effect on the inhibition of cancer cell proliferation.

[2] = tested on: AMPK; test: AMPK activation (AMPKα immunoassay kit, phospho-Thr172) in MCF7 cells; assay type: cell-based, human; set-up: AMPK Activation 50 uM (degree of phosphorylated AMPKα Thr172): unit not given here; conditions: 24 h; for AMPK Activation 50 uM (degree of phosphorylated AMPKα Thr172): 50 uM compound
Method: The MCF7 cells were put on a 6-well plate and incubated in a DMEM medium containing 10% fetal bovine serum in an incubator to which 5% CO2 was supplied to have a cell count of approximately 5×10^5. 50 μM of the derivatives synthesized in the examples were treated to the each culture medium, and the cells were incubated for 24 hours. Subsequently, the cells were lysed by a method presented in the operation manual of the AMPKα immunoassay kit, and 20 μg of cell lysates were yielded through protein assay.

[3] = 50 uM compound vs 0 (no compound)

| SMILES | IC50 [1] | melting point | AMPK Activation Fold [2, 3] | AMPK Activation 50 uM (degree of phosphorylated AMPKα Thr172) [2] | AMPK Activation Fold ([2]; 1 mM metformin vs 0 (no compound)) | AMPK Activation (@ 1 mM) (degree of phosphorylated AMPKα Thr172) ([2]; 1 mM metformin) |
| --- | --- | --- | --- | --- | --- | --- |
| CCCC/N=C(/NC(=N)N)NC1CCCCCC1.Cl [Example 1, N4-butyl-N5-cycloheptyl biguanide hydrochloride] | > 200 µM |  | 4.0 | 21.1 |  |  |
| CCC/N=C(\NC)NC(=N)N.Cl [Example 2, N4-propyl-N5-methyl biguanide hydrochloride] | > 100 µM | 170 to 171 °C | 1.0 | 6.5 |  |  |
| CCCCCC/N=C(\NC)NC(=N)N.Cl [Example 3, N4-hexyl-N5-methyl biguanide hydrochloride] | > 100 µM |  | 5.2 | 35.5 |  |  |
| C=CC/N=C(\NC)NC(=N)N.Cl [Example 4, N4-allyl-N5-methyl biguanide hydrochloride] | > 100 µM | 156 to 157 °C | 0.8 | 5.3 |  |  |
| CN/C(=N\Cc1ccccc1)NC(=N)N.Cl [Example 5, N4-benzyl-N5-methyl biguanide hydrochloride] | > 100 µM | 113 to 115 °C | 1.6 | 10.8 |  |  |
| CN/C(=N\CCc1ccccc1)NC(=N)N.Cl [Example 6, N4-(phenetyl)-N5-methyl biguanide hydrochloride] | > 100 µM | 126 to 127 °C | 4.9 | 33.1 |  |  |
| CCCCCC/N=C(/NC(=N)N)NC(C)CC.Cl (stereo not shown) [Example 7, N4-hexyl-N5-(butane-2-yl)biguanide hydrochloride] | > 100 µM | 175 to 176 °C | 5.8 | 39.5 |  |  |
| CCC(C)N/C(=N\CCc1ccccc1)NC(=N)N.Cl (stereo not shown) [Example 8, N4-(phenetyl)-N5-(butyl-2-yl)biguanide hydrochloride] | > 100 µM | 181 to 183 °C | 2.7 | 18.4 |  |  |
| CCCC/N=C(\NCCCC)NC(=N)N.Cl [Example 9, N4,N5-dibutyl biguanide hydrochloride] | > 100 µM | 112 to 114 °C | 3.8 | 25.6 |  |  |
| CCCCCC/N=C(\NCCCC)NC(=N)N.Cl [Example 10, N4-hexyl-N5-butyl biguanide hydrochloride] | 30.3 µM |  | 7.2 | 38.1 |  |  |
| CCCCN/C(=N\C(C)C)NC(=N)N.Cl [Example 11, N4-isopropyl-N5-butyl biguanide hydrochloride] | > 100 µM | 173 to 175 °C | 0.6 | 4.2 |  |  |
| CCCCN/C(=N\C(C)CC)NC(=N)N.Cl (stereo not shown) [Example 12, N4-(butane-2-yl)-N5-butyl biguanide hydrochloride] | > 200 µM | 193 to 194 °C | 1.5 | 8.1 |  |  |
| C=CC/N=C(\NCCCC)NC(=N)N.Cl [Example 13, N4-allyl-N5-butyl biguanide hydrochloride] | > 200 µM |  | 3.9 | 20.5 |  |  |
| CCCCN/C(=N\C1CCCC1)NC(=N)N.Cl [Example 14, N4-cyclopentyl-N5-butyl biguanide hydrochloride] | > 100 µM | 190 to 191 °C | 3.4 | 23.2 |  |  |
| CN(C)C(=N)N=C(N)N [Metformin HCl, reference compound] |  |  |  |  | 3.2 | 21.5 |

Continued, in another order:

| IC50 [1] | melting point | SMILES | AMPK Activation Fold [2, 3] | AMPK Activation 50 uM (degree of phosphorylated AMPKα Thr172) [2] | AMPK Activation Fold ([2]; 1 mM metformin vs 0 (no compound)) | AMPK Activation (@ 1 mM) (degree of phosphorylated AMPKα Thr172) ([2]; 1 mM metformin) |
| --- | --- | --- | --- | --- | --- | --- |
| > 200 µM |  | CCCCN/C(=N\Cc1ccco1)NC(=N)N.Cl [Example 15, N4-(furane-2-yl)methyl-N5-butyl biguanide hydrochloride] | 3.7 | 19.4 |  |  |
| 34.7 µM | 193 to 194 °C | CCCCN/C(=N\C12CC3CC(CC(C3)C1)C2)NC(=N)N.Cl [Example 16, N4-adamantyl-N5-butyl biguanide hydrochloride] | 6.7 | 35.3 |  |  |
| 126 µM | 195 to 196 °C | CCCCN/C(=N\c1ccc(Br)cc1)NC(=N)N.Cl [Example 17, N4-(4-bromo)phenyl-N5-butyl biguanide hydrochloride] | 3.9 | 26.3 |  |  |
| > 200 µM |  | CCCCN/C(=N\Cc1ccccc1)NC(=N)N.Cl [Example 18, N4-benzyl-N5-butyl biguanide hydrochloride] | 1.8 | 9.6 |  |  |
| > 100 µM | 147 to 148 °C | CCCCN/C(=N\Cc1ccccc1Cl)NC(=N)N.Cl [Example 19, N4-(2-chloro)benzyl-N5-butyl biguanide hydrochloride] | 2.8 | 19.1 |  |  |
| 54.1 µM |  | CCCCN/C(=N\Cc1cccc(Cl)c1)NC(=N)N.Cl [Example 20, N4-(3-chloro)benzyl-N5-butyl biguanide hydrochloride] | 1.5 | 7.2 |  |  |
| 13.5 µM | 113 to 115 °C | CCCCN/C(=N\Cc1ccc(Cl)cc1)NC(=N)N.Cl [Example 21, N4-(4-chloro)benzyl-N5-butyl biguanide hydrochloride] |  |  |  |  |
| > 100 µM |  | CCCCN/C(=N\Cc1ccc(OC)cc1)NC(=N)N.Cl [Example 22, N4-(4-methoxyl)benzyl-N5-butyl biguanide hydrochloride] | 4.4 | 29.9 |  |  |
| 35.3 µM |  | CCCCN/C(=N\Cc1ccc(Cl)c(Cl)c1)NC(=N)N.Cl [Example 23, N4-(3,4-dichloro)benzyl-N5-butyl biguanide hydrochloride] | 7.8 | 19.5 |  |  |
| 26.5 µM |  | CCCCN/C(=N\CCc1ccc(Cl)cc1)NC(=N)N.Cl [Example 25, N4-(4-chloro)phenethyl)-N5-butyl biguanide hydrochloride] |  |  |  |  |
|  | 123 to 124 °C | CCCCN/C(=N\CCc1ccc(Cl)cc1)NC(=N)N.Cl [Example 25] | 6.7 | 16.7 |  |  |
| > 200 µM |  | C=CC/N=C(\NCc1ccccc1)NC(=N)N.Cl [Example 29, N4-allyl-N5-benzyl biguanide hydrochloride] | 1.0 | 5.5 |  |  |
| > 100 µM |  | Cl.N=C(N)N/C(=N/C1CCCCCC1)NCc1ccccc1 [Example 31, N4-cycloheptyl-N5-benzyl biguanide hydrochloride] | 6.6 | 44.6 |  |  |
| 6.5 µM | 178 to 179 °C | CCCC/N=C(\NCCc1ccccc1)NC(=N)N.Cl [Example 33, N4-butyl-N5-(phenethyl)biguanide hydrochloride] |  |  |  |  |
|  | 232 to 233 °C | Cl.N=C(N)N/C(=N/c1ccccc1)NCCc1ccccc1 [Example 35, N4-phenyl-N5-(phenethyl)biguanide hydrochloride] | 1.3 | 9.0 |  |  |
| 9.3 µM | 115 to 116 °C | Cl.N=C(N)N/C(=N/c1ccc(Cl)cc1)NCCc1ccccc1 [Example 36, N4-(4-chloro)phenyl-N5-(phenethyl)biguanide hydrochloride] |  |  |  |  |
| > 100 µM |  | Cl.N=C(N)N/C(=N/Cc1ccco1)NCCc1ccccc1 [Example 38, N4-(furan-2-yl)methyl-N5-(phenethyl)biguanide hydrochloride] | 3.2 | 22.0 |  |  |
| 99.1 µM |  | COc1ccc(C/N=C(/NC(=N)N)N(C)Cc2cccc3ccccc23)cc1.Cl [Example 46, N4-(4-methoxyl)benzyl-N5,N5-(1-naphthylmethyl)-(methyl) biguanide hydrochloride] | 3.7 | 19.5 |  |  |

Source: patent US9464042B2, “Biguanide derivative, preparation method thereof, and pharmaceutical composition containing same as an active ingredient” (IMMUNOMET THERAPEUTICS INC., priority 2010, dated 2016)
